Reference: patent US10166214B2, “Somatostatin receptor subtype 4 (SSTR4) agonists” (Centrexion Therapeutics Corporation, priority 2013, dated 2019)

Columns and labels:
[1] = molecular target: human Somatostatin 4 receptor (SSTR4) (Homo sapiens (Human), UniProt P31391); assay: cAMP assay with human somatostatin 4 receptor (hSSTR4 expressing H4 cells); assay type: cell-based; details: read-out: SSTR4 agonism EC50
Protocol: Method Description for cAMP Assay with Human Somatostatin 4 Receptor
The activation of the SSTR4 receptor (Gi coupled) causes an inhibition of intracellular cAMP after stimulation with Forskolin, which can be quantifiable by use of a suitable assay Kit and an adequate plate reader. This technique is used to characterize pharmacological effects of the SSTR4 receptor agonists by use of hSSTR4 expressing H4 cells.
Compounds are dissolved and diluted in DMSO. The final test solution contains 1% DMSO. […] Cells are centrifuged and suspended in assay buffer (incl. 1:100 diluted Alexa antibody).
For the assay 5 μl of a cell suspension (approximately 5000 cells/well)—incl. Alexa antibody (diluted 1:100) are added into a 384 well MTP microtitre plate excepting one row or column (depending on the plate layout), which is reserved for the standard curve. Then 2 μl of compound sample is added as concentration response curve (e.g. 1e-5 M to 6e-10 M), usually in triplicates. Each assay contains incubations with vehicle controls instead of compound as controls for non-inhibited cAMP generation (100% CTL; ‘high values’) and incubations with 1 μM Somatosatin as controls for full inhibition and background (0% CTL; ‘low values’). […] Then the plates are shaken briefly and incubated for 60 min at room temperature. After 60 min 10 μl of the detection mix is added into all wells followed by an additional incubation period of 1 h. The plates are read in a suitable plate reader.
From this ratio, cAMP concentrations are calculated from standard curve and the EC50 is estimated by least square curve fit program.

[2] = Metabolic stability in pooled human liver microsomes (half-life); assay type: in vitro ADME; details: 1 μM test compound; for Half-life t1/2: 37° C.; for half-life at 1 μM: pH 7.6, 37° C., read-out: Half-life t1/2
Protocol: The metabolic stability of the compounds according to the invention may be investigated as follows:
The metabolic degradation of the test compound is assayed at 37° C. with pooled human liver microsomes. The final incubation volume of 100 μl per time point contains TRIS buffer pH 7.6 at room temperature (0.1 M), magnesium chloride (5 mM), microsomal protein (1 mg/mL) and the test compound at a final concentration of 1 μM. Following a short preincubation period at 37° C., the reactions are initiated by addition of beta-nicotinamide adenine dinucleotide phosphate, reduced form (NADPH, 1 mM), and terminated by transferring an aliquot into solvent after different time points. After centrifugation (10000 g, 5 min), an aliquot of the supernatant is assayed by LC-MS/MS for the amount of parent compound. The half-life is determined by the slope of the semi-logarithmic plot of the concentration-time profile.

human SSTR4 = human SSTR4 (Homo sapiens (Human), UniProt P31391); assay: Radioligand binding assay, CHO cell membranes expressing recombinant human SSTR4; details: [3-125I-Tyr]-Somatostatin-(1-14)
Sequence of human SSTR4 (P31391 whole entry): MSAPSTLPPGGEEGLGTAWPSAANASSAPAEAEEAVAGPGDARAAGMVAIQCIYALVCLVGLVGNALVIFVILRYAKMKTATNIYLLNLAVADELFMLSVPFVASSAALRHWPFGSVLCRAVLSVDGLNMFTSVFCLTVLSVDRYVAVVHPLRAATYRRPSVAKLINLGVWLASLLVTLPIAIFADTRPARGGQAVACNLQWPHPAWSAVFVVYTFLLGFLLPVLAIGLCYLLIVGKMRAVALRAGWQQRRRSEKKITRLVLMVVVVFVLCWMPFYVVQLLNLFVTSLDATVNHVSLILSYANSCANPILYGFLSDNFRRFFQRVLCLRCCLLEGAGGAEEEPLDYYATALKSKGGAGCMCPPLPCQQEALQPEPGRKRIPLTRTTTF
Protocol: Receptor binding assays refer to a technique in which labeled receptor ligands are used to detect binding to a receptor. In competition experiments test compounds, which are not labeled, compete with the binding side of a labeled ligand. The displacement of the labeled ligand by the test compound leads to a decreased signal.
For the binding experiments 200 μL of membrane homogenate from one of the following protein amounts is used: hSSTR1 (40 μg/well); hSSTR2 (25 μg/well); hSSTR3 (1.5 μg/well); hSSTR4 (0.5 μg/well); hSSTR5 (25 μg/well). […] The protein-bound radioactivity is measured in a suitable reader. The non-specific binding is defined as radioactivity bound in the presence of 1 μM Somatostatin-14 during the incubation period.
The analysis of the concentration-binding curves is performed by computer-assisted nonlinear least square curve fitting method using the model of one receptor binding site.

Sequence of human Somatostatin 4 receptor (SSTR4) (P31391 whole entry): as above

SMILES	Half-life t1/2 [2] [h]	also measured
O=C(NC1CCCCC1c1ccccc1)[C@H]1[C@@H]2CNC[C@@H]21 (stereo partly drawn) [Example 9]		EC50 [1]: 536 nM
CC(C)(NC(=O)[C@H]1[C@@H]2CNC[C@@H]21)c1ncc2ccccn12.Cl [Example 68]	>2.17	
Cc1ncccc1OCC(C)(C)NC(=O)[C@H]1[C@@H]2CNC[C@@H]21.Cl [Example 44]	>2.17	
CC(C)(NC(=O)[C@H]1[C@@H]2CNC[C@@H]21)c1ccnc2ccccc12.Cl [Example 21]	>2.17	
CC(C)(NC(=O)[C@H]1[C@@H]2CNC[C@@H]21)c1noc2c(F)cccc12 [Example 101]	>2.17	
CC(C)(NC(=O)[C@H]1[C@@H]2CNC[C@@H]21)c1n[nH]c2ccccc12 [Example 94]		half-life at 1 μM [2]: > 2.17 h; EC50 [1]: 1.6 nM
CC(C)(NC(=O)[C@H]1[C@@H]2CNC[C@@H]21)c1cnc2ccccn12.Cl [Example 20]	>2.17	
Cc1nc(C(C)(C)NC(=O)[C@H]2[C@@H]3CNC[C@@H]32)c2ccccc2n1 [Example 138]	>2.17	
CC(C)(NC(=O)[C@H]1[C@@H]2CNC[C@@H]21)c1n[nH]c2c(C(F)(F)F)cccc12 [Example 110]		half-life at 1 μM [2]: > 2.17 h; EC50 [1]: 0.7 nM
Cc1cccn2c(C(C)(C)NC(=O)[C@H]3[C@@H]4CNC[C@@H]43)nc(C)c12.Cl [Example 130]		half-life at 1 μM [2]: > 2.17 h; EC50 [1]: 0.3 nM
Cc1cccn2c(C(C)(C)NC(=O)[C@H]3[C@@H]4CNC[C@@H]43)ncc12.Cl [Example 126]	>2.17	
CC(C)(COc1cccnc1C(F)(F)F)NC(=O)[C@H]1[C@@H]2CNC[C@@H]21.Cl [Example 18]	>2.17	
Cc1cccnc1C(C)(C)NC(=O)[C@H]1[C@@H]2CNC[C@@H]21.Cl.Cl [Example 25]	>2.17	
Cc1cccc2c(C(C)(C)NC(=O)[C@H]3[C@@H]4CNC[C@@H]43)n[nH]c12 [Example 93]		half-life at 1 μM [2]: > 2.17 h; Ki (human SSTR4): 3.6 nM; EC50 [1]: 0.1 nM
Cc1cc(C2CC2)ccc1OCC(C)(C)NC(=O)[C@H]1[C@@H]2CNC[C@@H]21 [Example 65]		half-life at 1 μM [2]: > 2.17 h
CC(C)(NC(=O)[C@H]1[C@@H]2CNC[C@@H]21)c1nc(C2CC2)c2ccccn12.Cl [Example 120]	>2.17	
CC(C)(NC(=O)[C@H]1[C@@H]2CNC[C@@H]21)c1nccc2ccccc12.Cl [Example 24]	>2.17	
Cc1ccnnc1OCC(C)(C)NC(=O)[C@H]1[C@@H]2CNC[C@@H]21.Cl [Example 67]	>2.17	
CC(C)(NC(=O)[C@H]1[C@@H]2CNC[C@@H]21)c1ncccc1C(F)(F)F.Cl [Example 23]	>2.17	
CC(C)(NC(=O)[C@H]1[C@@H]2CNC[C@@H]21)c1ncc2c(F)cccn12.Cl [Example 133]	>2.17	
Cc1cc2ccccc2c(C(C)(C)NC(=O)[C@H]2[C@@H]3CNC[C@@H]32)n1.Cl [Example 22]	>2.17	
CCc1ccccc1OCC(C)(C)NC(=O)[C@H]1[C@@H]2CNC[C@@H]21 [Example 39]	>2.17	
